In US20060198879A1, “Patch material for ionic medicine administration” (Tokuyama Corporation, priority 2003, published 2006) one finds Amount of permeation data, which are given here for 5 compounds.

SMILES strings stand for the structures.

A short description of data set [1]: Amount of medicine permeated in living body skin system. The format is in vitro ADME, miniature pig (Yucatane Micropig). Conditions: 10 mmol/l, miniature pig back skin. On the procedure: (§1) An aqueous solution containing 10% by mass of a polyvinyl alcohol (NH-20 produced by The Nippon Synthetic Chemical Industry Co., Ltd.) was coated on a filter paper (a chemical analysis filter paper 5C produced by Advantec). The amount of the solution coated was such that the amount of the polyvinyl alcohol after solvent removal was 2 mg/cm^2. Then, the filter paper was allowed to stand at room temperature for 24 hours or more to vaporize the water, whereby was obtained a virtual skin. […] An aqueous solution containing a given concentration of a medicine was filled in a medicine solution chamber 22; and an aqueous solution containing […] by mass of sodium chloride was filled in a virtual skin chamber 23. Then, a permeation test was conducted at 25° C. for a given period of time with the inside of the medicine solution chamber 22 and the inside of the virtual skin chamber 23 being stirred. Right after the completion of the test, the solution inside the virtual skin chamber 23 was withdrawn and used as a sample for measurement. The amount of medicine in the sample was determined using liquid chromatography.
(5) Amount of Medicine Permeated in Living Body Skin System
The amount of the medicine permeated was measured in the same manner as in the virtual skin system, by replacing the virtual skin (a filter paper coated with a polyvinyl alcohol) with a living body skin, i.e. the back skin of miniature pig (Yucatane Micropig, 5 month-old, female).

Data set [2] in a line: Amount of medicine permeated in virtual skin system. The format is in vitro ADME. Conditions: 10 mmol/l, 25° C., no voltage. The procedure:
(4) Amount of Medicine Permeated in Virtial Skin System
as §1

The mark [3] stands for this setting: magnesium salt of ascorbic acid-phosphoric acid ester, duration of permeation 1 hr.
The mark [4] stands for this setting: magnesium salt of ascorbic acid-phosphoric acid ester, duration of permeation 2 hr.
Where [5] appears, read: magnesium salt of ascorbic acid-phosphoric acid ester, duration of permeation 3 hr.
Where [6] appears, read: sodium ascorbate, duration of permeation 3 hr.

As to `O=C1O[C@H]([C@@H](O)CO)C([O-])=C1OP(=O)([O-])[O-].O=C1O[C@H]([C@@H](O)CO)C([O-])=C1OP(=O)([O-])[O-].[Mg+2].[Mg+2].[Mg+2]` [Comparative Example 9, magnesium salt of ascorbic acid-phosphoric acid ester], the Amount of permeation came to 0.010 μmol/cm^2 in data set [1] (setting [3]), 0.013 μmol/cm^2 in data set [1] (setting [4]) and 0.015 μmol/cm^2 in data set [1] (setting [5]).
As for `O=C1O[C@H]([C@@H](O)CO)C([O-])=C1OP(=O)([O-])[O-].O=C1O[C@H]([C@@H](O)CO)C([O-])=C1OP(=O)([O-])[O-].[Mg+2].[Mg+2].[Mg+2]` [Comparative Example 2, magnesium salt of ascorbic acid-phosphoric acid ester], the Amount of permeation in data set [2] (setting [3]) amounted to 0.6 μmol/cm^2; in data set [2] (setting [4]), 1.3 μmol/cm^2; in data set [2] (setting [5]), 2.0 μmol/cm^2.
Turning to `O=C1O[C@H]([C@@H](O)CO)C([O-])=C1O.[Na+]` [Comparative Example 4, sodium ascorbate], the Amount of permeation in data set [2] (setting [6]) is listed as 5.2 μmol/cm^2.
The compound `Cl.Cl.NCCc1c[nH]cn1` [compound 6, histamine dihydrochloride] gave an Amount of permeation in data set [2] (histamine dihydrochloride, duration of permeation 3 hr) of 2.5 μmol/cm^2.
As for `O=C1O[C@H]([C@@H](O)CO)C([O-])=C1O.[Na+]` [compound 8, sodium ascorbate], the Amount of permeation came to 0.003 μmol/cm^2 in data set [1] (sodium ascorbate, duration of permeation 1 hr); 0.005 μmol/cm^2 in data set [1] (sodium ascorbate, duration of permeation 2 hr); 0.007 μmol/cm^2 in data set [1] (setting [6]).
